Laboratory results reported in patent US5977065A, “Bacterial nitroreductase for the reduction of CB1954 and analogues thereof to a cytotoxic form” (Cancer Research Campaign Technology Limited, priority 1991, dated 1999).

Experiments:
[1] = target: T1, E. coli nitroreductase (Escherichia coli, UniProt P38489); assay: Enzymatic reduction of CB 1954 followed by HPLC; type: biochemical, E. coli B
T1 construct: endogenous in cells; host or cells: E. coli B cell paste; endogenous enzyme purified by Phenyl-Sepharose and Q-Sepharose chromatography, not recombinant
Procedure: Enzymatic reduction of CB 1954. CB 1954 (100 μM and also containing [U-^3 H] C.B 1954 at 1.6×10^5 dpm per nmole), NADH or NAD(P)H (500 μM) were incubated with the active enzyme obtained as described in Example 1, (generally 2 μg/ml E. coli nitroreductase or 35 μg/ml Walker NAD(P)H dehydrogenase (quinone) EC 1.6.99.2) in 10 mM sodium phosphate buffer (pH 7) under either air or helium. At various times aliquots (10 μl) were injected onto a Partisphere SCX (110×4.7 mm) HPLC column and eluted isocratically (2 ml/min) with 100 mM NaH2 PO4.
(§1) The eluate was continuously monitored for adsorption at 310, 260 and 360 nm and the spectra of eluting components recorded using a diode-array detector. Samples (0.5 ml) were collected and the tritium activity of each determined by liquid scintillation counting. This separation system could resolve all the expected reduction products.
(§2) To confirm further the identity of any reduction products, the above reduction mixture was also injected onto an ODS-5 reverse phase HPLC column and eluted (1 ml/min) with a methanol gradient (0-30% linear over 30 min, 30-100% linear over 10 min.) in 0.1 M sodium phosphate buffer (pH 7).

[2] = target: T2, Walker NAD(P)H dehydrogenase (quinone) EC 1.6.99.2 (Rattus norvegicus, UniProt P05982); assay: Enzymatic reduction of CB 1954 followed by HPLC; type: biochemical; conditions: reduction of 50 μM of CB 1954
T2 construct: the enzyme isolated from the Walker tumour, EC.1.6.99.2; from tissue; host or cells: Walker tumour (Walker cell)
T2 sequence (P05982 2-274 limits assumed): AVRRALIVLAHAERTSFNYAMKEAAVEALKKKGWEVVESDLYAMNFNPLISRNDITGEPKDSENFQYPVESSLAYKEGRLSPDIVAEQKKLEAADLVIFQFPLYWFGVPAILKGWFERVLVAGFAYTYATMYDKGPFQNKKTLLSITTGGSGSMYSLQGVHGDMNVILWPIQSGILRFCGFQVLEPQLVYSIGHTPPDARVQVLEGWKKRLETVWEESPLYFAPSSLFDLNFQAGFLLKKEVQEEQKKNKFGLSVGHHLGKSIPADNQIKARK
Procedure: Enzymatic reduction of CB 1954. […] At various times aliquots (10 μl) were injected onto a Partisphere SCX (110×4.7 mm) HPLC column and eluted isocratically (2 ml/min) with 100 mM NaH2 PO4.
as §1, §2

[3] = test system: V79 cells; assay: Survival (colony-forming ability) of V79 cells treated with CB 1954 in the presence of E. coli B nitroreductase (Table 4); type: cell-based, Hamster
Procedure: (§3) E. coli B nitroreductase. All treatments were for 2 hours at 37°
(§4) cells were then plated out for their resulting colony-forming ability.
(§5) nitroreductase concentration was 2 μg/ml and NADH was used as a […]

[4] = target: T3, E. coli B nitroreductase (Escherichia coli, UniProt P38489); assay: % drug reduction in the V79 incubations (Table 4); type: biochemical
T3 construct: endogenous in cells; host or cells: E. coli B cell paste; endogenous enzyme purified by Phenyl-Sepharose and Q-Sepharose chromatography, not recombinant
Procedure: The effect of CB 1954 on the survival of V79 cells in the presence of the
as §3, §4, §5

[5] = target: T1, E. coli nitroreductase; assay: Substrate specificity: relative rate of NADH oxidation by HPLC (Table 5); type: biochemical; conditions: relative to CB 1954; 37° C. in air, NADH 500 μM, substrate 100 μM
Procedure: The ability of the E. coli nitroreductase of the invention to reduce nitro-compounds other than CB 1954 was determined by HPLC by following the decrease in the peak area of NADH resulting from its oxidation. The experiments were carried out as above but the aliquots were injected onto a Partisphere SAX (110×4.7 mm) HPLC column and eluted isocratically (1 ml/min) with 75 mM NaH2 PO4.
The relative rates of reduction of various nitrobenzamides and
nitrobenzenes with E. coli nitroreductase enzyme. Reduction
rates were determined by the resulting oxidation of NADH. All
reactions were carried out at 37° C. in air, with NADH (500
electron donor, at an initial substrate concentration of 100 μM.

[6] = target: T3, E. coli B nitroreductase; assay: Enzyme kinetic and inhibition studies; type: biochemical
Procedure: Protein concentration was determined using the a conventional protein assay (Bio-Rad) calibrated against bovine serum albumin.

[7] = target: T2, Walker NAD(P)H dehydrogenase (quinone) EC 1.6.99.2; assay: Enzyme kinetic studies; type: biochemical
Procedure: Quinone reductase activities were assayed by a spectrophotometric method using menadione as a substrate and cytochrome c as a terminal electron acceptor as described in Knox et al, Biochem. Pharmacol., 37, 4671-4677, 1988. Initial rates of reaction were determined by linear regression analysis (r>0.995) and kinetic parameters determined from the resulting plots as described by Roberts et al, Biochem. Pharmacol. 38, 4137-4143, 1989. Protein concentration was determined using the a conventional protein assay (Bio-Rad) calibrated against bovine serum albumin.
Kinetic parameters for the E. coli nitroreductase and Walker NAD(P)H, dehydrogenase (quinone) EC. […] The absolute rates of reduction of CB 1954 (i.e. under saturating conditions) by the two enzymes is their kcat values and this is 90 fold higher for the E. coli nitroreductase.

[8] = test system: MAWI cells; assay: Survival (colony forming ability) of MAWI cells with enzyme-activated prodrugs (Table 7); type: cell-based, human; conditions: 500 μM NADH alone
Procedure: The effect of enzyme-activated prodrugs on the survival of MAWI
cells. 1 ml volumes of MAWI cells (2 × 10^5 /ml) were
with 50 μM prodrug, 500 μM NADH, and 10 μg/ml the enzyme of
Example 1. After a 2 hour incubation at 37° C., the cells were
harvested and assayed for their colony forming ability, and the
supernatant assayed for the concentration of remaining prodrug

[9] = test system: V79 cells; assay: Survival (colony forming ability) of V79 cells with enzyme-activated prodrugs (Table 8); type: cell-based; conditions: 500 μM NADH alone
Procedure: Generation of cytotoxicity by the action of the E. coli nitroreductase of Example 1 upon the prodrugs 4-[bis(2-chloroethyl)amino]phenylcarbamic acid 4'-nitrobenzyl ester (I where R^1 NH2 =III) and N-4-nitrobenzyloxy-carbonyl-actinomycin D (V) are shown in Table 8.
The effect of enzyme-activated prodrugs on the survival of V79
cells. 1 ml volumes of V79 cells (2 × 10^5 /ml) were incubated
with prodrug, 500 μM NADH, and 10 μg/ml enzyme. After a 2 hour
incubation at 37° C., the cells were harvested and assayed for
their colony forming ability, and the supernatant assayed for
the concentration of remaining prodrug by HPLC.

[10] = NR 2 μg/ml + 50 μM CB 1954, no NADH
[11] = NR 2 μg/ml + CB 1954 + 500 μM NADH

T3 sequence (P38489 whole entry): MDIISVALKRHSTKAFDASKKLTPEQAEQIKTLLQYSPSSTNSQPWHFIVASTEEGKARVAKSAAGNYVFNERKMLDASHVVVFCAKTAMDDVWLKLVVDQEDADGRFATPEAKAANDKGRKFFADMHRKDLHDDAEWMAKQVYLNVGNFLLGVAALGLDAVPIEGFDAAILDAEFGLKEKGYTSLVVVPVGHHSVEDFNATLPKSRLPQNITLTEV
T1 sequence (P38489 whole entry): as above

| Structure (SMILES) | rate of reduction of CB 1954 or product formation ([1]; co-factor NAD(P)H or NADH, under helium) | nitroreductase more active per mg protein than NAD(P)H dehydrogenase (quinone), initial rates of 4-hydroxylamine formation ([1]; standard conditions) [fold] | nitroreductase more active than NAD(P)H dehydrogenase (quinone) by CB 1954 reduction ([1]; standard conditions) [fold] | 4-hydroxylamine formed ([1]; when 67 μM of CB 1954 was reduced) [µM] | 4-hydroxylamine formed [2] [µM] | % SURVIVAL ([3]; 50 μM CB 1954, 2 hours 37° C.) [%] | % SURVIVAL ([3]; NADH + CB 1954, no enzyme, 2 hours 37° C.) [%] | % SURVIVAL [3, 10] [%] | % SURVIVAL [3, 11] [%] | % DRUG REDUCTION ([4]; 50 μM CB 1954 alone) [%] | % DRUG REDUCTION ([4]; NADH + CB 1954, no enzyme) [%] | % DRUG REDUCTION [4, 10] [%] | % DRUG REDUCTION [4, 11] [%] | RELATIVE RATE OF NADH OXIDATION NR [5] | kcat for CB 1954 reduction higher for the E. coli nitroreductase than Walker enzyme ([6]; saturating conditions) [fold] | % SURVIVAL ([3]; 500 μM NADH) [%] | Km of the nitroreductase for NADH less than the Walker enzyme [6] | Km [7] [µM] | % SURVIVAL [8] [%] | % SURVIVAL [9] [%] |
| --- | --- | --- | --- | --- | --- | --- | --- | --- | --- | --- | --- | --- | --- | --- | --- | --- | --- | --- | --- | --- |
| NC(=O)c1cc(N2CC2)c([N+](=O)[O-])cc1[N+](=O)[O-] [CB 1954, 5-(aziridin-1-yl)-2,4-dinitrobenzamide] | the same | 31.2 | 62 | 33 | 50 | 100 | 41 | 99 | 0.024 | < 1.0 | < 1.0 | < 1.0 | 72 | 1.0 | 90 |  |  |  |  |  |
| NC(=O)C1=CN([C@@H]2O[C@H](COP(=O)(O)OP(=O)(O)OC[C@H]3O[C@@H](n4cnc5c(N)ncnc54)[C@H](O)[C@@H]3O)[C@@H](O)[C@H]2O)C=CC1 [NADH] |  |  |  |  |  |  |  |  |  |  |  |  |  |  |  | 100 | about 10 fold | 75 | 100 | 100 |
